Measurements reported in patent US11331271B2, “Buccal, sublingual and intranasal delivery of fospropofol” (The Johns Hopkins University, priority 2016, dated 2022).
Entries after “also recorded” stand apart in the source; their conditions may differ.

Tested on: rat chronic constrictive injury model of neuropathic pain
Assay: Neuropathic pain studies in rats (thermal hyperalgesia, withdrawal latency)
Format: in vivo
Conditions: for alleviation of thermal hyperalgesia: 45-60 min post-dose; for time course of analgesic effect: tested 1, 2 and 4 h after dosing
Description: This study was performed as previously described (Vornov, et al., 2013). In brief, male Sprague-Dawley rats (200-250 g) were anesthetized with halothane. The common sciatic nerve on one hind limb was exposed by separating the biceps femoris from the gluteus superficialis. The nerve was subsequently isolated from the surrounding tissue and four ligatures (4.0 chromic gut) were tied loosely around it with about 1-mm spacing. On the other hind limb of the rat, the nerve was similarly isolated but no ligatures were placed, (sham surgery). Thermal pain sensitivity was evaluated using a plantar test apparatus according to previous methods (Hargreaves, et al., 1988). In brief, this involved applying a constant infrared stimulus to the plantar surface of the hind paw using a Basile Plantar apparatus (Ugo Basile, Vaarese, Italy). Withdrawal latency was measured as the time taken for the rat to withdraw its paw from the heat source to the nearest 0.1 s. The “difference score” was calculated by subtracting the average latency of the non-ligated versus ligated side. Animals were habituated to the test chambers (clear plastic compartment maintained in a quiet room) for several hours over 3-4 days, prior to any measurement. Baseline hyperalgesia was recorded 10-12 days post-surgery after the habituation. On test day, each animal received either fospropofol (50, 75 or 100 mg/kg) or vehicle (distilled water) via oral gavage in a volume of 2 mL/kg in a randomized and blinded fashion. Withdrawal latency measurements were then recorded five times for both the operated and sham hind paws of each rat starting from 45 to 60 min post dose. The final latency measurement represents a mean of the last four out of a total of five responses, each being taken at least 5 min apart on the same paw. The difference in response latency for each rat for each leg was calculated and used to determine the mean latency difference response time for each group.

For `CC(C)c1cccc(C(C)C)c1OCOP(=O)(O)O` [fospropofol], the “alleviation of thermal hyperalgesia” value (75 mg/kg PO) was “active in alleviating thermal hyperalgesia; also recorded: effective in reducing hyperalgesia”, the “time course of analgesic effect” value (75 mg/kg PO) was “losing activity by 2 h” and the “time course of analgesic effect” value (75 mg/kg PO, listed as Fospropofol) was “effective only when tested at 1 h”. For the same molecule, the “alleviation of thermal hyperalgesia” value (100 mg/kg PO) was “active in alleviating thermal hyperalgesia; also recorded: effective in reducing hyperalgesia”, the “absolute latency of the ligated side vs vehicle” value (1 hour after oral fospropofol) was “dose dependent increase” and the “withdrawal latency on sham (non-ligated) side vs vehicle” value (PO fospropofol) was “no change in latencies; also recorded: did not change”.
